Experimental findings from PMC9607644, “Glycoconjugation of Quinoline Derivatives Using the C-6 Position in Sugars as a Strategy for Improving the Selectivity and Cytotoxicity of Functionalized Compounds” (Molecules, 2022) are described below.

One assay concerns NHDF-Neo cells. Kind of assay: MTT cytotoxicity assay, NHDF-Neo. The assay is classed as cell-based. The note with it: Homo sapiens, incubation time 72 h. The method, then:
An in vitro biological test package was performed for the obtained derivatives. All newly synthesized compounds were assessed for their cytotoxic activity against human cell lines with increased GLUT expression: the colon cancer cell line (HCT-116) and the breast cancer cell line (MCF-7), as well as on normal human dermal fibroblasts cells (NHDF-Neo), using the MTT assay (3-(4,5-dimethylthiazol-2-yl)-2,5-diphenyltetrazolium bromide). The MTT test is a colorimetric method for detecting proliferating cells. It is based on the ability of the enzyme mitochondrial dehydrogenase to convert yellow tetrazole salt (MTT) into purple formazan. The amount of the product formed in the reaction, determined spectrophotometrically, is proportional to the number of living cells. The antiproliferative activity was expressed as the concentration that caused 50% inhibition of the growth of the population of cells treated with the test compounds relative to the control cells (inhibitory concentration activity—IC50). Table 1 and Table 2 summarize the IC50 values calculated for all tested compounds.
The in vitro cytotoxicity of the test compounds was determined by the MTT (3-[4,5–dimethylthiazol-2-yl]-2,5-diphenyltetrazolium bromide) test (Sigma-Aldrich, Taufkirchen, Germany) according to the manufacturer’s protocol. At the beginning, for each cell line were determined the optimal seeding densities to ensure exponential growth throughout the experimental period. The confluent layer of cells were trypsinized, collected, and suspended in a growth medium. The cell suspension were then seeded into 96-well plates at a density of 1 × 10^4 or 2 × 10^3 (HCT-116) or 5 × 10^3 (MCF-7, NHDF-Neo) per well and incubated for 24 h under standard conditions (5% CO2, 37 °C). Then, the culture medium was replaced with solutions of different concentrations of test compounds in a fresh medium. Stock solutions of test compounds were prepared in DMSO and diluted to final concentrations with appropriate volumes of the growth medium directly before the experiment. Cells suspended in a medium supplemented with 0.5% DMSO (the amount of DMSO necessary to dissolve the highest dose of the respective sample) were used as a control of the experiment. […] The compound-treated cells were incubated for a further 24–72 h. After that, the medium was removed and the MTT solution (50 µL, 0.5 mg/mL in PBS) was added into each well and incubated for another 3 h under standard conditions (5% CO2, 37 °C). After this time, the MTT dye was carefully removed, and the acquired formazan crystals were dissolved by DMSO (Chempur, Piekary Śląskie, Poland). The proliferation was evaluated by measuring the formazan product’s absorbance at a wavelength of 570 nm with a microplate spectrophotometer (Epoch, BioTek, Winooski, VT, USA). All experiments were conducted in triplicate with four technical repeats for each tested concentration. Results were expressed as the percentage change in the viability of the test cells relative to the untreated control cells and calculated as the inhibitory concentration (IC50). The IC50 values were defined as the drug concentration that was necessary to reduce cell proliferation to 50% of the untreated control and this parameter was calculated using CalcuSyn software (version 2.0, Biosoft, Cambridge, UK). The results are expressed as the average value ± standard deviation (SD).
(In general: Tetrazolium dyes change colour on reduction, which living cells bring about.)

Assay [1] deals with HCT-116 cells. The assay is described as follows: Clonogenic assay, HCT-116. The assay is classed as cell-based, human. The note with it: IC50 concentration 72 h, then 10 days in fresh medium. The method, then:
MCF-7 and HCT-116 cells were treated with type A glycoconjugates and their ability to proliferate was observed. […] The formed colonies were stained with crystal violet (Figure 5).
To determine the number of colonies forming by cells after exposure to the test compounds, a clonogenic assay was performed as reported in the literature. The cells were seeded into 6-well plates at a density of 1 × 10^5 (HCT-116) or 2 × 10^5 (MCF-7, NHDF-Neo) per well (3 mL) and allowed to attach for 24 h under standard conditions with 5% CO2 at 37 °C. The following day, the medium was removed and cells were treated with solutions of test compounds in fresh medium at a dose equal to their IC50 values. Control cells were grown with fresh medium supplemented with 0.5% DMSO. After 72 h of incubation, the cells were collected by trypsinization and then reseeded into new 6-well plates at a density of 1000 cells/well/3 mL. The plates with cells were incubated for 10 days under standard conditions with 5% CO2 at 37 °C. After this time, the medium was removed and the cells were washed with PBS, fixed with ice-cold ethanol (-20 °C) for 3 min, and washed again with PBS. Finally, cells were stained with crystal violet (0.01% in H2O; Sigma-Aldrich, Taufkirchen, Germany) for 20 min. The plates were then washed with H2O and allowed to air-dry.

Assay [2] has as its system HCT-116 cells. Kind of assay: Annexin V-FITC/PI apoptosis flow cytometry, HCT-116. The assay is classed as cell-based, human. The note with it: IC50 dose, 24 h. An excerpt:
Apoptosis is a natural biological process involving programmed cell death and plays an important role in maintaining correct homeostasis between cell proliferation and cell death. This is in contrast to necrosis, which is accompanied by acute inflammation, preceded by cell degradation due to the loss of the integrity of the cell membrane. It is possible to distinguish viable cells from apoptotic and necrotic cell fractions using Annexin V-FITC and Propidium Iodide (PI). Annexin V-FITC labels phosphatidylserine residues that, after the start of apoptosis, are located on the outer surface of the cell membrane, enabling the identification of cells in the early stages of apoptosis. PI binds stoichiometrically to intracellular DNA during late apoptosis and necrosis when the cell membrane has been damaged. This combination allows for the differentiation of early apoptotic (A+/P−), late apoptotic (A+/P+), necrosis (A−/P+), and normal (A−/P−) cells that can be quantified by flow cytometry.
The cell cycle and the type of cell death induced by the test compounds were measured by using flow cytometry according to the manufacturer’s protocol. […] Control cells were grown with fresh medium supplemented with 0.5% DMSO. After 24 h of incubation, the cells were collected by trypsinization. Then, samples were centrifuged (3 min, 2000 rpm, RT) and washed with PBS, after which the cells were centrifuged again (3 min, 2000 rpm, RT) and the supernatant was carefully removed. The resulting precipitate contained cells, which were used for flow cytometry experiments.
The fraction of dead cells after treatment with the test compounds were detected using the FITC Annexin-V Apoptosis Detection Kit with PI (BioLegend, San Diego, CA, USA). […] 250 μL of the Annexin-V Binding Buffer was then added and the samples were incubated in the dark on ice for 15 min.
A general note: A flow cytometer gives signals particle by particle.

As to `CC(=O)OC1O[C@H](Cn2cc(COc3cccc4cccnc34)nn2)[C@@H](OC(C)=O)[C@H](OC(C)=O)[C@H]1OC(C)=O` (some centres unmarked) [Compound A-1], the half-maximal inhibitory concentration (IC50) (in general, the point on the concentration scale where inhibition reaches its midpoint) in the assay with NHDF-Neo cells worked out at 130 ± 1.49 µM. In the assay on HCT-116 cells [1], the “clonogenic potential, HCT-116” value is on record as “able to decrease the clonogenic potential”. Besides, in the assay with HCT-116 cells [2], the “apoptotic cells, HCT-116” value came to 29%.

Regarding `OC1O[C@H](Cn2cc(COc3cccc4cccnc34)nn2)[C@@H](O)[C@H](O)[C@H]1O` (some centres unmarked) [Compound A-2], in the assay on NHDF-Neo cells, the IC50 worked out at 317 ± 9.46 µM. Further, the “clonogenic potential, HCT-116” value in the assay with HCT-116 cells [1] is on record as “able to decrease the clonogenic potential”. Moreover, the “apoptotic cells, HCT-116” value in the assay with HCT-116 cells [2] is recorded as 46%.

`O[C@@H]1[C@@H](O)[C@@H](O[C@H]2O[C@H](Cn3cc(COc4cccc5cccnc45)nn3)[C@@H](O)[C@H](O)[C@H]2O)O[C@H](Cn2cc(COc3cccc4cccnc34)nn2)[C@H]1O` [Compound D-2] returned an IC50 in the assay on NHDF-Neo cells of 70.7 ± 0.75 µM. The “apoptotic cells, HCT-116” value in the assay on HCT-116 cells [2] stood at 87%.

Consider `CC(=O)OC[C@H]1O[C@@H](n2cc(COc3cccc4cccnc34)nn2)[C@H](OC(C)=O)[C@@H](OC(C)=O)[C@@H]1OC(C)=O` [Compound E-1, reference compound], for which the IC50 with NHDF-Neo cells turned out to be 55.3 ± 5.08 µM. For the same molecule, the “apoptosis induction in words, HCT-116” value in the assay with HCT-116 cells [2] is “did not induce apoptosis”.

As to `OC[C@H]1O[C@@H](n2cc(COc3cccc4cccnc34)nn2)[C@H](O)[C@@H](O)[C@@H]1O` [Compound E-2, reference compound], the half-inhibitory concentration (IC50) in the assay with NHDF-Neo cells was determined as 233 ± 9.44 µM.
